Legend:
aggrecanase-1 = biological target: T1, aggrecanase-1 (Homo sapiens, UniProt O75173); test: Aggrecanase-1 inhibitory action, Particle Assay (GAG release from aggrecan-containing polyacrylamide particles); type: biochemical; settings: 37° C. for 15 hr, read-out: Experimental Example 1 IC50 AG1
T1 sequence (O75173 213-837): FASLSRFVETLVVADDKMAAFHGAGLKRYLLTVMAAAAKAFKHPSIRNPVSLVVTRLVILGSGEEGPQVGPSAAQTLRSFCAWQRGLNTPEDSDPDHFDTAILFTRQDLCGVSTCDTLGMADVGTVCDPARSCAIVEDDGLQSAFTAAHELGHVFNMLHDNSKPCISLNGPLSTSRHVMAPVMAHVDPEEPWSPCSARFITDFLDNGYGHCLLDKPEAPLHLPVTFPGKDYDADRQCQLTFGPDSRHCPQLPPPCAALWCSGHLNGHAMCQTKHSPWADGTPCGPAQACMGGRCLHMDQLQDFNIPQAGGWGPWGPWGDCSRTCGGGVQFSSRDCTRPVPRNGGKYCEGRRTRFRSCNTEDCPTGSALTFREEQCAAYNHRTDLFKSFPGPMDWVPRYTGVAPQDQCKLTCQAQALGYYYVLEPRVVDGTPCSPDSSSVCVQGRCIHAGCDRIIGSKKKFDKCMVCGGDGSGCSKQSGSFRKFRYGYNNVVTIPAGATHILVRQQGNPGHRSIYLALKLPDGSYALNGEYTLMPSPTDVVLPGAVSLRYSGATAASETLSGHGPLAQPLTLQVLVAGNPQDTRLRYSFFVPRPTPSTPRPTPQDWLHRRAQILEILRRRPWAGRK
Outline: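 Enzyme and test compound (DMSO dilutions) in Tris-HCl buffer incubated with aggrecan-containing polyacrylamide particles at 37 °C for 15 hr. Released GAG in supernatant quantified with 1,9-dimethylmethylene blue at 595 nm against whale chondroitin sulfate standard; % inhibition versus enzyme-free and inhibitor-free wells gives IC50 (μM).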

MMP-1 = biological target: T2, MMP-1 (Homo sapiens, UniProt P03956); test: MMP-1 inhibitory action, Type I collagen Activity Measurement kit (FITC-labeled collagen type I); type: biochemical; settings: 37° C. for 3 hr, read-out: Experimental Example 2 IC50 MMP1
T2 sequence (P03956 100-469): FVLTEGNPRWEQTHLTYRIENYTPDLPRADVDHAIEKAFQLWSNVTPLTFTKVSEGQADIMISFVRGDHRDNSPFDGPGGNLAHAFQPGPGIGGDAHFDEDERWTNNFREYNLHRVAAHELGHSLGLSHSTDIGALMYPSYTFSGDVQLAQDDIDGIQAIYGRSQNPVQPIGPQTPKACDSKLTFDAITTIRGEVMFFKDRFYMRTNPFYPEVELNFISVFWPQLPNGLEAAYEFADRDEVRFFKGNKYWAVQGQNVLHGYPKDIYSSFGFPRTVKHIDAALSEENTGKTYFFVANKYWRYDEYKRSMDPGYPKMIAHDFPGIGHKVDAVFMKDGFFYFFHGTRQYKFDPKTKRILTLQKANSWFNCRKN

Compound	IC50 (aggrecanase-1) [µM]	IC50 (MMP-1) [µM]
O=C(O)[C@@]1(N(Cc2noc(=O)[nH]2)S(=O)(=O)c2ccc(-c3ccc(Cl)cc3)cc2)C[C@H]1c1cccc(Oc2ccccc2)c1 (relative stereo) [Example 1-72, (1R*,2S*)-1-[(4′-chloro-biphenyl-4-sulfonyl)-(5-oxo-4,5-dihydro-[1,2,4]oxadiazol-3-ylmethyl)-amino]-2-(3-phenoxy-phenyl)-cyclopropanecarboxylic acid]	< 0.1	≥ 10
O=C(O)c1ncccc1CN([C@]1(C(=O)O)C[C@H]1c1ccccc1)S(=O)(=O)c1ccc(-c2ccc(Cl)cc2)cc1 (relative stereo) [Example 1-73, 3-{[((1R*, 2S*)-1-carboxy-2-phenyl-cyclopropyl)-(4′-chloro-biphenyl-4-sulfonyl)-amino]-methyl}-pyridin-2-carboxylic acid]	< 1	≥ 10
O=C(O)[C@@]1(N(CCNc2nnn[nH]2)S(=O)(=O)c2ccc(-c3ccc(Cl)cc3)cc2)C[C@H]1c1ccccc1 (relative stereo) [Example 1-77, (1R*,2S*)-1-{(4′-chloro-biphenyl-4-sulfonyl)-[2-(1H-tetrazol-5-ylamino)-ethyl]-amino}-2-phenyl-cyclopropanecarboxylic acid]	< 1	≥ 10
O=C(O)c1nccn1CCN([C@]1(C(=O)O)C[C@H]1c1ccccc1)S(=O)(=O)c1ccc(-c2ccc(Cl)cc2)cc1 (relative stereo) [Example 1-78, 1-{2-[((1R*,2S*)-1-carboxy-2-phenyl-cyclopropyl)-(4′-chloro-biphenyl-4-sulfonyl)-amino]-ethyl}-1H-imidazole-2-carboxylic acid]	< 1	≥ 10
O=C(O)[C@@]1(N(CCNS(=O)(=O)C(F)(F)F)S(=O)(=O)c2ccc(-c3ccc(Cl)cc3)cc2)C[C@H]1c1cccc(Oc2ccccc2)c1 (relative stereo) [Example 1-81, (1R*,2S*)-1-[(4′-chloro-biphenyl-4-sulfonyl)-(2-trifluoromethanesulfonylamino-ethyl)-amino]-2-(3-phenoxy-phenyl)-cyclopropanecarboxylic acid]	< 1	≥ 10
CCN(CC)CCNc1cccc([C@@H]2C[C@@]2(C(=O)O)N(Cc2cccc(C(=O)O)c2)S(=O)(=O)c2ccc(-c3ccc(Cl)cc3)cc2)c1 (relative stereo) [Example 1-85, 3-{[{(1R*,2S*)-1-carboxy-2-[3-(2-diethylamino-ethylamino)-phenyl]-cyclopropyl}-(4′-chloro-biphenyl-4-sulfonyl)-amino]-methyl}-benzoic acid]	< 1	≥ 10
O=C(O)c1cccc(CN([C@]2(C(=O)O)C[C@H]2c2cccc(Nc3ccccn3)c2)S(=O)(=O)c2ccc(-c3ccc(Cl)cc3)cc2)c1 (relative stereo) [Example 1-86, 3-{[{(1R*,2S*)-1-carboxy-2-[3-(pyridin-2-ylamino)-phenyl]-cyclopropyl}-(4′-chloro-biphenyl-4-sulfonyl)-amino]-methyl}benzoic acid]	< 0.1	≥ 10
O=C(O)c1cccc(CN([C@]2(C(=O)O)C[C@H]2c2cccc(OCCO)c2)S(=O)(=O)c2ccc(-c3ccc(Cl)cc3)cc2)c1 (relative stereo) [Example 1-88, 3-{[{(1R*,2S*)-1-carboxy-2-[3-(2-hydroxy-ethoxy)-phenyl]-cyclopropyl}-(4′-chloro-biphenyl-4-sulfonyl)-amino]-methyl}-benzoic acid]	< 0.1	≥ 10
O=C(O)[C@@]1(N(CCNS(=O)(=O)C(F)(F)F)S(=O)(=O)c2ccc(-c3ccc(Cl)cc3)cc2)C[C@H]1c1cccc(NCCN2CCCCC2)c1 (relative stereo) [Example 1-89, (1R*,2S*)-1-[(4′-chloro-biphenyl-4-sulfonyl)-(2-trifluoromethanesulfonylamino-ethyl)-amino]-2-[3-(2-piperidin-1-yl-ethylamino)-phenyl]-cyclopropanecarboxylic acid]	< 1	≥ 10
O=C(O)[C@@]1(N(CCNS(=O)(=O)C(F)(F)F)S(=O)(=O)c2ccc(-c3ccc(Cl)cc3)cc2)C[C@H]1c1cccc(NS(=O)(=O)CCN2CCCCC2)c1 (relative stereo) [Example 1-90, (1R*,2S*)-1-[(4′-chloro-biphenyl-4-sulfonyl)-(2-trifluoromethanesulfonylamino-ethyl)-amino]-2-[3-(2-piperidin-1-yl-ethanesulfonylamino)-phenyl]-cyclopropanecarboxylic acid]	< 1	≥ 10

Now from value to compound:

IC50 (aggrecanase-1) [µM]	IC50 (MMP-1) [µM]	Compound
< 1	≥ 10	O=C(O)c1cccc(CN([C@]2(C(=O)O)C[C@H]2c2cccc(NCCN3CCCCC3)c2)S(=O)(=O)c2ccc(-c3ccc(Cl)cc3)cc2)c1 (relative stereo) [Example 1-91, 3-{[{(1R*,2S*)-1-carboxy-2-[3-(2-piperidin-1-yl-ethylamino)-phenyl]-cyclopropyl}-(4′-chloro-biphenyl-4-sulfonyl)-amino]-methyl}-benzoic acid]
< 1	≥ 10	O=C(O)CCCN([C@]1(C(=O)O)C[C@H]1c1ccccc1)S(=O)(=O)c1ccc(-c2ccc(Cl)cc2)cc1 (relative stereo) [Example 1-93, (1R*,2S*)-1-[(3-carboxy-propyl)-(4′-chloro-biphenyl-4-sulfonyl)-amino]-2-phenyl-cyclopropanecarboxylic acid]
< 1	≥ 10	O=C(CO)NCCN([C@]1(C(=O)O)C[C@H]1c1ccccc1)S(=O)(=O)c1ccc(-c2ccc(Cl)cc2)cc1 (relative stereo) [Example 1-96, (1R*,2S*)-1-{(4′-chloro-biphenyl-4-sulfonyl)-[2-(2-hydroxy-acetylamino)-ethyl]-amino}-2-phenyl-cyclopropanecarboxylic acid]
< 0.1	≥ 10	O=C(O)c1cccc(CN([C@]2(C(=O)O)C[C@H]2c2cccc(NC(=O)c3cccnc3)c2)S(=O)(=O)c2ccc(-c3ccc(Cl)cc3)cc2)c1 (relative stereo) [Example 1-99, 3-{[((1R*, 2S*)-1-carboxy-2-{3-[(pyridin-3-carbonyl)-amino]-phenyl}-cyclopropyl)-(4′-chloro-biphenyl-4-sulfonyl)-amino]-methyl}-benzoic acid]
< 1	≥ 10	O=C(O)c1cccc(CN([C@]2(C(=O)O)C[C@H]2c2cccc(OCCN3CCCC3)c2)S(=O)(=O)c2ccc(-c3ccc(Cl)cc3)cc2)c1 (relative stereo) [Example 1-100, 3-{[{(1R*,2S*)-1-carboxy-2-[3-(2-pyrrolidin-1-yl-ethoxy)-phenyl]-cyclopropyl}-(4′-chloro-biphenyl-4-sulfonyl)-amino]-methyl}-benzoic acid]
< 1	≥ 10	O=C(O)c1cccc(CN([C@]2(C(=O)O)C[C@H]2c2cccc(OCCN3CCOCC3)c2)S(=O)(=O)c2ccc(-c3ccc(Cl)cc3)cc2)c1 (relative stereo) [Example 1-101, 3-{[{(1R*,2S*)-1-carboxy-2-[3-(2-morpholin-4-yl-ethoxy)-phenyl]-cyclopropyl}-(4′-chloro-biphenyl-4-sulfonyl)-amino]-methyl}-benzoic acid]
< 1	≥ 1	CNC(=O)c1cnn(CCN([C@]2(C(=O)O)C[C@H]2c2ccccc2)S(=O)(=O)c2ccc(-c3ccc(Cl)cc3)cc2)c1 (relative stereo) [Example 1-106, (1R*,2S*)—{(4′-chloro-biphenyl-4-sulfonyl)-[2-(4-methylcarbamoyl-pyrazol-1-yl)-ethyl]-amino}-2-phenyl-cyclopropanecarboxylic acid]
